Legend:
[1] = tested on: clinically isolated strains; assay: Test Examples 1 to 3 with other β-lactamase-inhibiting penicillins or cephalosporins; type: cell-based; details: in place of Methicillin or Cloxacillin
Description: (§1) Heart Infusion agar containing a prescribed amount of Methicillin sodium or T-1220 was inoculated with the test bacterium at a rate of about 10^8 cells/ml. After incubation for 18 hours at 37° C., the growth of the test bacterium was inspected.
The β-lactamase activity was assayed by the iodometric assay method at 30° C., following the procedure of Perret [C.J. Perret, "Iodometric Assay of Penicillinase," Nature, 174, 1012-1013 (1954)], except that a 0.1 molar phosphate buffer solution (pH 7.0) was used in place of the 0.2 molar phosphate buffer solution (pH 6.5). One unit of β-lactamase activity corresponds to the quantity of β-lactamase which decomposes 1 μmole/hour of T-1220 in a 0.1 molar phosphate buffer solution (pH 7.0) containing 8 m moles of the substrate.
A pathogenic bacterium was inoculated at a rate of about 10^8 cells/ml into a Heart Infusion broth containing T-1220 (200 μg/ml) alone, T-1220 (200 μg/ml) plus Methicillin sodium (200 μg/ml), T-1220 (200 μg/ml) plus Cloxacillin sodium (200 μg/ml), Methicillin sodium (200 μg/ml) alone, or Cloxacillin sodium (200 μg/ml) alone. The inoculated broth was incubated at 37° C. and the number of live cells in the culture broth was determined at predetermined time intervals.
The test results described in the foregoing Test Examples 1 to 3 are typical of the pharmacological activity of the antibacterial composition of this invention.

P. aeruginosa S-111 = assay: Effect of combined use on experimental infection in mice (protection effect); type: in vivo, ICR mice infected with P. aeruginosa; details: P. aeruginosa S-111, 1.6 × 10^6 cells/mouse intraperitoneal; subcutaneous, one and two hours after inoculation
Excerpt: (§2) Male mice (5 mice per group) of the ICR strain, 4 weeks of age, were peritoneally inoculated with the prescribed number of pathogenic bacteria suspended in 5% mucin. After one hour and two hours following the inoculation, test preparations shown in Table 4 were subcutaneously administered to examine the protection effect.

K. pneumoniae Y-53 = assay: as above; type: in vivo, ICR mice infected with K. pneumoniae; details: K. pneumoniae Y-53, 1.0 × 10^7 cells/mouse intraperitoneal; subcutaneous, one and two hours after inoculation
Excerpt: as §2

[2] = tested on: Escherichia coli TK-3 strain; assay: Minimum inhibitory concentration; type: cell-based; details: TK3STRAIN
[3] = tested on: Pseudomonas aeruginosa S-12 strain; assay: Minimum inhibitory concentration; type: cell-based; details: S12STRAIN
[4] = tested on: Pseudomonas aeruginosa S-12 strain; assay: Growth-inhibition test on clinically isolated strain (Heart Infusion agar, about 10^8 cells/ml, 18 hours at 37° C.); type: cell-based; set-up: key: (+) means that the test bacterium grew; (-) means that the test bacterium did not grow
Description: as §1

[5] = tested on: Escherichia coli TK-3 strain; assay: as above; type: cell-based; set-up: key: (+) means that the test bacterium grew; (-) means that the test bacterium did not grow
Description: as §1

[6] = T-1220 0 + methicillin sodium 50 μg/ml
[7] = T-1220 0 + methicillin sodium 100 μg/ml
[8] = T-1220 0 + methicillin sodium 200 μg/ml

SMILES: Cc1onc(-c2c(Cl)cccc2Cl)c1C(=O)N[C@@H]1C(=O)N2[C@@H]1SC(C)(C)[C@@H]2C(=O)O [Dicloxacillin]
- results in the Test Examples when used as the β-lactamase-inhibiting penicillin or cephalosporin [1]: results similar to those obtained with Methicillin and Cloxacillin

SMILES: Cc1onc(-c2c(F)cccc2Cl)c1C(=O)N[C@@H]1C(=O)N2[C@@H]1SC(C)(C)[C@@H]2C(=O)O [Flucloxacillin]
- results in the Test Examples when used as the β-lactamase-inhibiting penicillin or cephalosporin [1]: results similar to those obtained with Methicillin and Cloxacillin

SMILES: COc1cccc(OC)c1C(=O)N[C@@H]1C(=O)N2[C@@H]1SC(C)(C)[C@@H]2C(=O)O [Methicillin sodium]
- ED50 (protection effect) (P. aeruginosa S-111): > 50 mg/mouse
- ED50 (protection effect) (K. pneumoniae Y-53): > 50 mg/mouse
- MIC [2]: > 3200 µg/mL
- MIC [3]: > 3200 µg/mL
- growth of the test bacterium ([4]; T-1220 0 + methicillin sodium 3.13 μg/ml): +
- growth of the test bacterium ([4]; T-1220 0 + methicillin sodium 6.25 μg/ml): +
- growth of the test bacterium ([4]; T-1220 0 + methicillin sodium 12.5 μg/ml): +
- growth of the test bacterium ([4]; T-1220 0 + methicillin sodium 25 μg/ml): +
- growth of the test bacterium [4, 6]: +
- growth of the test bacterium [4, 7]: +
- growth of the test bacterium [4, 8]: +
- growth of the test bacterium [5, 6]: +
- growth of the test bacterium [5, 7]: +
- growth of the test bacterium [5, 8]: +
- growth of the test bacterium ([5]; T-1220 0 + methicillin sodium 400 μg/ml): +
- growth of the test bacterium ([5]; T-1220 0 + methicillin sodium 800 μg/ml): +
- growth of the test bacterium ([5]; T-1220 0 + methicillin sodium 1600 μg/ml): +
- growth of the test bacterium ([5]; T-1220 0 + methicillin sodium 3200 μg/ml): +

SMILES: Cc1onc(-c2ccccc2)c1C(=O)N[C@@H]1C(=O)N2[C@@H]1SC(C)(C)[C@@H]2C(=O)O [Oxacillin]
- results in the Test Examples when used as the β-lactamase-inhibiting penicillin or cephalosporin [1]: results similar to those obtained with Methicillin and Cloxacillin

SMILES: Cc1onc(-c2ccccc2Cl)c1C(=O)N[C@@H]1C(=O)N2[C@@H]1SC(C)(C)[C@@H]2C(=O)O [Cloxacillin sodium]
- MIC [2]: > 3200 µg/mL
- MIC [3]: > 3200 µg/mL

SMILES: CO[C@@]1(NC(=O)Cc2cccs2)C(=O)N2C(C(=O)O)=C(COC(N)=O)CS[C@@H]21 [Cefoxitin]
- results in the Test Examples when used as the β-lactamase-inhibiting penicillin or cephalosporin [1]: results similar to those obtained with Methicillin and Cloxacillin

SMILES: CCN1CCN(C(=O)N[C@@H](C(=O)N[C@@H]2C(=O)N3[C@@H]2SC(C)(C)[C@@H]3C(=O)O)c2ccccc2)C(=O)C1=O [T-1220, sodium 6-[D(-)-α-(4-ethyl-2,3-dioxo-1-piperazinylcarbonylamino)phenylacetamido]penicillanate]
- ED50 (protection effect) (P. aeruginosa S-111): > 50 mg/mouse
- ED50 (protection effect) (K. pneumoniae Y-53): > 50 mg/mouse
- MIC [2]: > 3200 µg/mL
- MIC [3]: > 3200 µg/mL
- growth of the test bacterium ([4]; T-1220 50 μg/ml, methicillin sodium concentration not given): +
- growth of the test bacterium ([4]; T-1220 100 μg/ml, methicillin sodium concentration not given): +
- growth of the test bacterium ([4]; T-1220 200 μg/ml, methicillin sodium concentration not given): +
- growth of the test bacterium ([4]; T-1220 400 μg/ml, methicillin sodium concentration not given): +
- growth of the test bacterium ([4]; T-1220 800 μg/ml, methicillin sodium concentration not given): +
- growth of the test bacterium ([4]; T-1220 1600 μg/ml, methicillin sodium concentration not given): +
- growth of the test bacterium ([4]; T-1220 3200 μg/ml, methicillin sodium concentration not given): +
- growth of the test bacterium ([5]; T-1220 50 + methicillin sodium 0 μg/ml): +
- growth of the test bacterium ([5]; T-1220 100 + methicillin sodium 0 μg/ml): +
- growth of the test bacterium ([5]; T-1220 200 + methicillin sodium 0 μg/ml): +
- growth of the test bacterium ([5]; T-1220 400 + methicillin sodium 0 μg/ml): +
- growth of the test bacterium ([5]; T-1220 800 + methicillin sodium 0 μg/ml): +
- growth of the test bacterium ([5]; T-1220 1600 + methicillin sodium 0 μg/ml): +
- growth of the test bacterium ([5]; T-1220 3200 + methicillin sodium 0 μg/ml): +

Reference: patent US4324783A, “Antibacterial composition for medical use” (Toyama Chemical Co., Ltd., priority 1977, dated 1982)
